Experimental data published in patent publication US8309685B2 (Celgene Avilomics Research, Inc., priority 2007, dated 2012).

Columns and labels:
[1] = target: T1, D168A mutant of the HCV NS3/4A 1b protease enzyme (Hepatitis C virus genotype 1b, UniProt P26663, D1194A); experiment: HCV Protease FRET Assay (IC50_APP), D168A mutant; type: biochemical; conditions: apparent IC50, D168A mutant; read-out: IC50_APP, HCV D168A
T1 construct: 10× stocks of NS3/4A protease enzyme from Bioenza (Mountain View, Calif.); purchased Bioenza (Mountain View, Calif.)

[2] = target: T2, NS3 protease with R155K mutation in modified replicon system (Hepatitis C virus genotype 1b, UniProt Q9WMX2, E1202G/R1181K/T1280I); experiment: Inhibition of protease self cleavage after compound removal, R155K replicon system; type: cell-based
T2 construct: modified replicon system where the NS3 protease contains a clinically observed mutation; expressed in transfected cells; host or cells: Huh7-Lunet cells transfected with in vitro transcribed replicon RNA
Description: Constructs containing clinically relevant mutations were generated by performing site-directed mutagenesis on the pFK-I389-luc-ubi-neo-NS3-3′ET plasmid (ReBLikon Gmbh (Heidelberg, Germany)). using the QuickChange II Site-Directed Mutagenesis Kit (Stratagene, La Jolla, Calif.) according to manufacturer's directions and with the primers described in Table 7, below.
(§1) Huh-7-Luc-Neo-ET cells were plated in Replicon Assay Medium (RPMI supplemented with 5% FBS, 1× non-essential amino acids and pen/strep) at a density of 1×10^5 cells/well in 12 well plates. Eight hours later the media was removed and replaced with 1 ml media containing test compound (5 wells per compound) and 0.02% DMSO and the cells were returned to the incubator overnight. […]
Cell lysates were separated by SDS-Page (4-20%) and transferred to Immobilon-P PVDF membrane (Millipore Corporation, Mass.) and blotted with polyclonal anti NS3 antibody (Bioenza, Calif.). Blots were scanned on an Odyssey infrared scanner from Licor and the FL band and cleavage products were quantified separately using the Licor software provided with the scanner. The cleavage product was calculated as a percentage of the total NS3 in each sample and then normalized to the DMSO control so that the DMSO control reflects 100% activity. […]

[3] = target: T3, NS3 protease self-cleavage in Huh-7-Luc-Neo-ET wild-type replicon cells (Hepatitis C virus genotype 1b, UniProt Q9WMX2, E1202G/T1280I); experiment: Inhibition of protease self cleavage after compound removal, wild-type replicon cells; type: cell-based; conditions: up to 24 hours after compound removal
T3 construct: host or cells: Huh-7-Luc-Neo-ET (human Huh7 hepatoma cells carrying the replicon)
Description: Inhibition of Protease Self Cleavage
as §1, with “overnight. Sixteen hours later 1 well from each compound and 1 untreated well were washed with PBS, then lysed and scraped into 30 ul of Cell Extraction Buffer (Biosource, Camarillo, Calif.) plus Complete Protease Inhibitor (Roche, Indianapolis, Ind.). The remaining wells were rinsed 2× with PBS then fed with Replicon Media and returned to the incubator.” for “overnight.”
Cell lysates were separated by SDS-Page (4-20%) and transferred to Immobilon-P PVDF membrane (Millipore Corporation, Mass.) and blotted with polyclonal anti NS3 antibody (Bioenza, Calif.). Blots were scanned on an Odyssey infrared scanner from Licor and the FL band and cleavage products were quantified separately using the Licor software provided with the scanner. The cleavage product was calculated as a percentage of the total NS3 in each sample and then normalized to the DMSO control so that the DMSO control reflects 100% activity.

[4] = target: T4, A156T mutant of the HCV NS3/4A 1b protease enzyme (Hepatitis C virus genotype 1b, UniProt P26663, A1182T); experiment: HCV Protease FRET Assay (IC50_APP), A156T mutant; type: biochemical; conditions: apparent IC50, A156T mutant; read-out: IC50_APP, HCV A156T
T4 construct: 10× stocks of NS3/4A protease enzyme from Bioenza (Mountain View, Calif.); purchased Bioenza (Mountain View, Calif.)

[5] = target: T5, wild type HCV NS3/4A 1b protease enzyme (Hepatitis C virus genotype 1b, UniProt P26663); experiment: HCV Protease FRET Assay (IC50_APP), wild type; type: biochemical
T5 construct: 10× stocks of NS3/4A protease enzyme from Bioenza (Mountain View, Calif.); purchased Bioenza (Mountain View, Calif.)

[6] = tested on: HCV RNA replicon in cell line ET (luc-ubi-neo/ET), human Huh7 hepatoma; experiment: Method A: HCV RNA replicon antiviral assay (luciferase, ET cell line); type: cell-based, Hepatitis C virus; conditions: Hepatitis C virus, Huh-7, assay described in Example 22
In short: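 Six 3-fold dilutions of each drug were tested on subconfluent luc-ubi-neo/ET Huh7 replicon cells (5×10^3/well) for 72 hr at 37 °C. EC50 and EC90 came from luciferase read-out, IC50 from CytoTox-1 cell number, and […]; interferon alpha-2b was run each time as control.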

[7] = target: T6, R155K mutant of the HCV NS3/4A 1b protease enzyme (Hepatitis C virus genotype 1b, UniProt P26663, R1181K); experiment: HCV Protease FRET Assay (IC50_APP), R155K mutant; type: biochemical; conditions: apparent IC50, R155K mutant; read-out: IC50_APP, HCV R155K
T6 construct: 10× stocks of NS3/4A protease enzyme from Bioenza (Mountain View, Calif.); purchased Bioenza (Mountain View, Calif.)

[8] = target: T7, HCV NS3/4A wild type (genotype 1b) (Hepatitis C virus genotype 1b, UniProt P26663); experiment: Mass spectrometric analysis (MALDI-TOF) of covalent modification, HCV wild type; type: binding; conditions: 10-fold excess of compound to protein, 3 hrs
T7 construct: mass spectroscopic analysis of HCV NS3/4A wild-type protease domain; purchased Bioenza Calif
Description: Mass spectrometric analysis of HCV wild type or HCV variant C159S in the presence of test compound was performed. 100 pmols of HCV wild type (Bioenza Calif.) was incubated with compound for 1 hr and 3 hrs at 10-fold access of […] to protein. 1 ul aliquots of the samples (total volume of 4.24 ul) were diluted with 10 ul of 0.1% TFA prior to micro C4 ZipTipping directly onto the MALDI target using Sinapinic acid as the desorption matrix (10 mg/ml in 01% TFA:Acetonitrile 50:50). Analyses were performed on a Shimadzu Biotech Axima TOF^2 (Shimadzu Instruments) matrix-assisted-laser desorption/ionization Time-of-Flight (MALDI-TOF) mass spectrometer. The same procedure was carried out on 100 pmols of HCV C159S mutant of HCV protease for 3 hrs at 10-fold excess of (I-3) to protein.
As depicted in FIGS. 2, 3, 4, and 5, mass spectrometric analysis of HCV wild type or HCV mutants in the presence of test compound (I-3) was performed. […] 1 ul aliquots of the samples were diluted with 10 ul of 0.1% TFA prior to micro C4 ZipTipping directly onto the MALDI target using Sinapinic acid as the desorption matrix (10 mg/ml in 0.1% TFA:Acetonitrile 50:50).
(§2) Mass spectrometric analysis of HCV wild type (genotype 1b) in the presence of test compounds I-73 and I-75 was performed using the following protocol: HCV NS3/4A wild type (wt) was incubated for 1 hr at a 10× fold access of test compound to protein. 2 ul aliquots of the samples were diluted with 10 ul of 0.1% TFA prior to micro C4 ZipTipping directly onto the MALDI target using Sinapinic acid as the desorption matrix (10 mg/ml in 0.1% TFA:Acetonitrile 50:50). For intact protein mass measurement the instrument was set in Linear mode using a pulsed extraction setting of 24,500 and apomyoglobin as the standard to calibrate the instrument.
Mass spectrometric analysis of HCV NS3/4A genotypes 1a, 1b, 2a, and 3a in the presence of test compound I-96 was performed using the following protocol: HCV NS3/4A was incubated for 3 hr at a 10× fold access of test compound to protein. […]

[9] = tested on: HCV RNA replicon in cell line ET (luc-ubi-neo/ET), human Huh7 hepatoma; experiment: Luciferase Assay (Example 35), replicon-derived luciferase activity; type: cell-based; conditions: Hepatitis C virus, Huh-7, assay described in Example 35
In short: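 Huh7-derived ET cells carrying a luciferase-reporter HCV replicon, 5×10^3 cells/well, exposed 72 h to six 3-fold compound concentrations in DMEM with 5% FBS. Replicon luciferase gives EC50/EC90; Cell Titer Blue cell number gives cytotoxic IC50, with SI50 as their ratio. Interferon alpha-2b served as positive control.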

[10] = target: T8, C159S mutant of the HCV NS3/4A 1b protease enzyme (Hepatitis C virus genotype 1b, UniProt P26663, C1185S); experiment: HCV Protease FRET Assay (IC50_APP), C159S mutant; type: biochemical; conditions: apparent IC50, C159S mutant
T8 construct: 10× stocks of NS3/4A protease enzyme from Bioenza (Mountain View, Calif.); purchased Bioenza (Mountain View, Calif.)
Description: HCV Protease FRET Assay for WT and Mutated NS3/4A 1b Enzymes (IC50—APP).
The following protocol was used to generate “apparent” IC50 (IC50—APP) values as depicted in Table 6, below. […] 5 μL of each enzyme were added to Corning (#3575) 384-well, black, microtiter plates (Corning, N.Y.) after spotting a 0.5 μL volume of 50% DMSO and serially diluted compounds prepared in 50% DMSO. Protease reactions were immediately started after enzyme addition with the addition of 45 μL of the FRET substrate and monitored for 60-90 minutes at λex485/λem520 in a Synergy^4 plate reader from BioTek (Winooski, Vt.). At the conclusion of each assay, progress curves from each well were examined for linear reaction kinetics and fit statistics (R^2, 95% confidence intervals, absolute sum of squares).
The compound numbers correspond to the compound numbers in Table 3. […] ;

HCV NS3/4A genotype 2a = target: T9, HCV NS3/4A genotype 2a (Hepatitis C virus genotype 2a, UniProt P26660); experiment: Mass spectrometric analysis of covalent modification, genotype 2a; type: binding; conditions: 10× excess of compound, 3 hr
T9 construct: Mass spectrometric analysis of HCV NS3/4A genotypes 1a, 1b, 2a, and 3a
Description: as §2, with “HCV NS3/4A genotypes 1a, 1b, 2a, and 3a” for “HCV wild type (genotype 1b)”, “test compound I-96” for “test compounds I-73 and I-75”, “NS3/4A” for “NS3/4A wild type (wt)”, “for 3” for “for 1”, “in 01%” for “in 0.1%”

HCV NS3/4A genotype 3a = target: T10, HCV NS3/4A genotype 3a (Hepatitis C virus genotype 3a, UniProt Q81258); experiment: Mass spectrometric analysis of covalent modification, genotype 3a; type: binding; conditions: 10× excess of compound, 3 hr
T10 construct: Mass spectrometric analysis of HCV NS3/4A genotypes 1a, 1b, 2a, and 3a
Description: as §2, with “HCV NS3/4A genotypes 1a, 1b, 2a, and 3a” for “HCV wild type (genotype 1b)”, “test compound I-96” for “test compounds I-73 and I-75”, “NS3/4A” for “NS3/4A wild type (wt)”, “for 3” for “for 1”, “in 01%” for “in 0.1%”

HCV NS3/4A genotype 1a = target: T11, HCV NS3/4A genotype 1a (Hepatitis C virus genotype 1a, UniProt P27958); experiment: Mass spectrometric analysis of covalent modification, genotype 1a; type: binding; conditions: 10× excess of compound, 3 hr
T11 construct: Mass spectrometric analysis of HCV NS3/4A genotypes 1a, 1b, 2a, and 3a
Description: as §2, with “HCV NS3/4A genotypes 1a, 1b, 2a, and 3a” for “HCV wild type (genotype 1b)”, “test compound I-96” for “test compounds I-73 and I-75”, “NS3/4A” for “NS3/4A wild type (wt)”, “for 3” for “for 1”, “in 01%” for “in 0.1%”

C=CC(=O)N[C@H](C)C(=O)N1C[C@H](Oc2cc(-c3ccccc3)nc3cc(OC)ccc23)C[C@H]1C(=O)N[C@]1(C(=O)NS(=O)(=O)C2CC2)C[C@H]1C=C [Compound I-54, (2S,4R)-1-((R)-2-acrylamidopropanoyl)-N-((1R,2S)-1-(cyclopropylsulfonylcarbamoyl)-2-vinylcyclopropyl)-4-(7-methoxy-2-phenylquinolin-4-yloxy)pyrrolidine-2-carboxamide]
IC50 [1]: 10 to 100 nM | Duration of inhibition of mutant protease activity after compound removal [2]: at least 24 hours | Inhibition of NS3 protease activity (self-cleavage) after compound removal [3]: virtually complete inhibition | IC50 [4]: 10 to 100 nM | IC50 [5]: < 10 nM | IC90 ([6]; IC90): < 10 nM | IC50 ([6]; read-out: Replicon (IC50)): < 10 nM

C=C[C@@H]1C[C@]1(NC(=O)[C@@H]1C[C@@H](Oc2nccc3cc(OC)ccc23)CN1C(=O)[C@H](CCC(=O)C=C(C)C)NC(=O)OC(C)(C)C)C(=O)NS(=O)(=O)C1CC1 [Compound I-96, {1-[2-(1-Cyclopropanesulfonylaminocarbonyl-2-vinyl-cyclopropylcarbamoyl)-4-(6-methoxy-isoquinolin-1-yloxy)-pyrrolidine-1-carbonyl]-6-methyl-4-oxo-hept-5-enyl}-carbamic acid tert-butyl ester]
IC50 [1]: 100 to 1000 nM | IC50 [7]: 10 to 100 nM | Covalent modification of HCV wild type by mass spectrometry [8]: measurable covalent modification | EC90 ([9]; EC90): 10 to 100 nM | EC50 [9]: < 10 nM | IC50 [10]: < 10 nM | Covalent modification of HCV NS3/4A genotype 2a by mass spectrometry (HCV NS3/4A genotype 2a): measurable covalent modification | IC50 [4]: 10 to 100 nM | IC50 [5]: < 10 nM | Covalent modification of HCV NS3/4A genotype 3a by mass spectrometry (HCV NS3/4A genotype 3a): measurable covalent modification | Covalent modification of HCV NS3/4A genotype 1a by mass spectrometry (HCV NS3/4A genotype 1a): measurable covalent modification
